{"source": "patent US20180228720A1", "about": "“MELANOGENESIS INHIBITOR” (TAKASAGO INTERNATIONAL CORPORATION, priority 2015, published 2018)", "key": {"[1]": {"tested_on": "melanocyte-containing human three-dimensional cultured epidermal model, LabCyte MELANO-MODEL 24", "assay": "Skin-whitening activity using melanocyte-containing human three-dimensional cultured epidermal tissue (amount of melanin, number of living cells by MTT)", "assay_type": "cell-based", "conditions": "sample 0.10% (positive control), 2 weeks culture, relative to negative control", "protocol": "A melanocyte-containing human three-dimensional cultured epidermal model, LabCyte […]-MODEL 24 (manufactured by Japan Tissue Engineering Co., Ltd.) was cultured in accordance with an instruction manual. That is, a culture cup having a human cultured epidermis charged therein was soaked in 1.5 mL of an improved melanin production-promoting medium, and an evaluation sample was added in the cup and exposed, followed by culture at 37° C. for 2 weeks in the presence of 5% carbon dioxide. The medium and the evaluation sample were exchanged once every two to three days. After completion of the culture, the number of living cells and the amount of melanin were measured according to the MTT assay by a method described in the instruction manual. Each measured value was calculated as a relative value (%) relative to a value of a negative control in which the evaluation sample was not exposed. The evaluation was performed by three times repetition."}, "[2]": {"tested_on": "melanin production", "conditions": "background art, Patent Documents 2 to 4; cited from earlier work"}, "[3]": {"tested_on": "B-16 melanoma cells", "assay": "Evaluation for melanin production-inhibitory activity against pigment cells", "assay_type": "cell-based", "conditions": "cultured 4 days with sample, relative to negative control", "protocol": "With respect to the components (compounds) of Examples 1 to 3 and Reference Example 1 shown in Table 1, the following test was performed, thereby studying the evaluation for melanin production-inhibitory activity.\nIn a plastic culture flask (25 cm^2), B-16 melanoma cells in a number of 1×10^5 were seeded and cultured in a 10% serum-containing DMEM medium (manufactured by Nippon Suisan Kaisha, Ltd.) in the presence of 5% carbon dioxide at 37° C. One day after the culture, an evaluation sample diluted with ethanol was added, and the cells were further cultured for 4 days. After completion of the culture, the medium was removed, and the cells were rinsed with PBS (phosphate buffer solution). Thereafter, the cells were detached from the plate by using a medium containing trypsin and EDTA (ethylenediaminetetraacetic acid) and harvested by means of centrifugation. The resulting cells were rinsed three times with 1 mL of 5% trichloroacetic acid controlled at 4° C., rinsed twice with 1 mL of an ethanol/diethyl ether (3/1) solution, and then rinsed once with 1 mL of diethyl ether. After drying, 1 mL of 2N sodium hydroxide was added to dissolve the cells at 60° C. After allowing the solution to stand for cooling, an absorbance at 415 nm was measured, thereby measuring the amount of melanin. Each measured value was calculated as a relative value (%) relative to a value of a negative control in which the evaluation sample was not exposed. The evaluation was performed by three times repetition."}}, "data": [{"smiles": "O=c1cc(CO)occ1O", "note": "[Kojic acid]", "values": [{"measurement": "Number of living cells (%)", "setting": "[1]; MTT assay", "result": "92.3 ± 8.8", "unit": "%"}, {"measurement": "Amount of melanin (%)", "setting": "[1]", "result": "48.4 ± 4.0", "unit": "%"}]}, {"smiles": "C[C@@H]1CC[C@H]2C(C)(C)[C@H]3C[C@@]12CC[C@@]3(C)O", "note": "[cedrol]", "values": [{"measurement": "Effect on melanin production (in words)", "setting": "[2]", "result": "exhibits a melanin production-inhibitory effect"}]}, {"smiles": "OC[C@H]1O[C@@H](Oc2ccc(O)cc2)[C@H](O)[C@@H](O)[C@@H]1O", "note": "[Arbutin]", "values": [{"measurement": "Melanin inhibition ratio (%)", "setting": "[3]; 3.13 μg/mL", "result": 39, "unit": "%"}, {"measurement": "Melanin inhibition ratio (%)", "setting": "[3]; 6.25 μg/mL", "result": 50, "unit": "%"}, {"measurement": "Melanin inhibition ratio (%)", "setting": "[3]; 12.5 μg/mL", "result": 71, "unit": "%"}]}, {"smiles": "C=CC(C)(O)CCC=C(C)CCC=C(C)C", "note": "(stereo not shown) [nerolidol]", "values": [{"measurement": "Effect on melanin production (in words)", "setting": "[2]", "result": "exhibits a melanin production-inhibitory effect"}]}]}
